Columns and labels:
persian speedwell [1] = test: Test Example 4: herbicidal effect by soil treatment (Table 19, symbol R); format: in vivo, Persian speedwell (Veronica persica); settings: amount of applied herbicide 320 g/ha
Summary of the method: (§1)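 Three weeks of greenhouse growth at 25° C. to 30° C. followed a uniform surface spray of water-diluted emulsion at a predetermined herbicide amount. Seeds had been sown beforehand under about 1.5 cm of sterilized diluvial soil. Grading followed criteria set out in an earlier test.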

wild oat [2] = test: Test Example 4: herbicidal effect by soil treatment (Table 19, symbol I); format: in vivo, wild oat (Avena fatua); settings: amount of applied herbicide 320 g/ha
Summary of the method: as §1

southern crabgrass [3] = test: Test Example 4: herbicidal effect by soil treatment (Table 19, symbol F); format: in vivo, southern crabgrass (Digitaria ciliaris); settings: amount of applied herbicide 320 g/ha
Summary of the method: as §1

lambsquarters [4] = test: Test Example 4: herbicidal effect by soil treatment (Table 19, symbol O); format: in vivo, lambsquarters (Chenopodium album); settings: amount of applied herbicide 320 g/ha
Summary of the method: as §1

persian speedwell [5] = test: Test Example 5: herbicidal effect by foliage application, plastic box (Table 20, symbol R); format: in vivo, Persian speedwell (Veronica persica); settings: foliage application, 320 g/ha, three weeks after application
Summary of the method: (§2)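 Plants sown in sterilized diluvial soil and grown 14 days in a greenhouse at 25° C to 30° C, then sprayed on the foliage with the compound's emulsion diluted in water to a predetermined herbicide amount. Injury to weeds and crops scored three weeks after application on a visual rating scale.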

velvetleaf [6] = test: Test Example 5: herbicidal effect by foliage application, plastic box (Table 20, symbol M); format: in vivo, velvetleaf (Abutilon theophrasti); settings: foliage application, 320 g/ha, three weeks after application
Summary of the method: as §2

redroot pigweed [7] = test: Test Example 5: herbicidal effect by foliage application, plastic box (Table 20, symbol N); format: in vivo, redroot pigweed (Amaranthus retroflexus); settings: foliage application, 320 g/ha, three weeks after application
Summary of the method: as §2

false cleavers [8] = test: Test Example 5: herbicidal effect by foliage application, plastic box (Table 20, symbol Q); format: in vivo, false cleavers (Galium spurium); settings: foliage application, 320 g/ha, three weeks after application
Summary of the method: as §2

blackgrass [9] = test: Test Example 5: herbicidal effect by foliage application, plastic box (Table 20, symbol J); format: in vivo, blackgrass (Alopecurus myosuroides); settings: foliage application, 320 g/ha, three weeks after application
Summary of the method: as §2

barnyard grass [10] = test: Test Example 3: herbicidal effect by foliage application, Wagner pot (Table 18, symbol H); format: in vivo, barnyard grass (Echinochloa crus-galli); settings: 320 g/ha
Summary of the method: (§3)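 Plants were sown in alluvial soil held under 0.1–0.5 cm standing water and grown 14 days in a greenhouse at 25–30 °C. An emulsifiable formulation, water-diluted to the set dose, was then sprayed onto the foliage, and effects were scored three weeks later using previously defined criteria.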

Italian ryegrass [11] = test: Test Example 5: herbicidal effect by foliage application, plastic box (Table 20, symbol K); format: in vivo, Italian ryegrass (Lolium multiflorum); settings: foliage application, 320 g/ha, three weeks after application
Summary of the method: as §2

windgrass [12] = test: Test Example 4: herbicidal effect by soil treatment (Table 19, symbol L); format: in vivo, windgrass (Apera spica-venti); settings: amount of applied herbicide 320 g/ha
Summary of the method: as §1

chickweed [13] = test: Test Example 4: herbicidal effect by soil treatment (Table 19, symbol P); format: in vivo, common chickweed (Stellaria media); settings: amount of applied herbicide 320 g/ha
Summary of the method: as §1

green foxtail [14] = test: Test Example 5: herbicidal effect by foliage application, plastic box (Table 20, symbol G); format: in vivo, green foxtail (Setaria viridis); settings: foliage application, 320 g/ha, three weeks after application
Summary of the method: as §2

rice flat sedge = test: Test Example 3: herbicidal effect by foliage application, Wagner pot (Table 18, symbol E); format: in vivo, rice flat sedge (Cyperus iria); settings: 320 g/ha
Summary of the method: as §3

Italian ryegrass [15] = test: Test Example 4: herbicidal effect by soil treatment (Table 19, symbol K); format: in vivo, Italian ryegrass (Lolium multiflorum); settings: amount of applied herbicide 320 g/ha
Summary of the method: as §1

chickweed [16] = test: Test Example 5: herbicidal effect by foliage application, plastic box (Table 20, symbol P); format: in vivo, common chickweed (Stellaria media); settings: foliage application, 320 g/ha, three weeks after application
Summary of the method: as §2

velvetleaf [17] = test: Test Example 4: herbicidal effect by soil treatment (Table 19, symbol M); format: in vivo, velvetleaf (Abutilon theophrasti); settings: amount of applied herbicide 320 g/ha
Summary of the method: as §1

windgrass [18] = test: Test Example 5: herbicidal effect by foliage application, plastic box (Table 20, symbol L); format: in vivo, windgrass (Apera spica-venti); settings: foliage application, 320 g/ha, three weeks after application
Summary of the method: as §2

blackgrass [19] = test: Test Example 4: herbicidal effect by soil treatment (Table 19, symbol J); format: in vivo, blackgrass (Alopecurus myosuroides); settings: amount of applied herbicide 320 g/ha
Summary of the method: as §1

barnyard grass [20] = test: Test Example 4: herbicidal effect by soil treatment (Table 19, symbol H); format: in vivo, barnyard grass (Echinochloa crus-galli); settings: amount of applied herbicide 320 g/ha
Summary of the method: as §1

southern crabgrass [21] = test: Test Example 5: herbicidal effect by foliage application, plastic box (Table 20, symbol F); format: in vivo, southern crabgrass (Digitaria ciliaris); settings: foliage application, 320 g/ha, three weeks after application
Summary of the method: as §2

lambsquarters [22] = test: Test Example 5: herbicidal effect by foliage application, plastic box (Table 20, symbol O); format: in vivo, lambsquarters (Chenopodium album); settings: foliage application, 320 g/ha, three weeks after application
Summary of the method: as §2

barnyard grass [23] = test: Test Example 5: herbicidal effect by foliage application, plastic box (Table 20, symbol H); format: in vivo, barnyard grass (Echinochloa crus-galli); settings: foliage application, 320 g/ha, three weeks after application
Summary of the method: as §2

redroot pigweed [24] = test: Test Example 4: herbicidal effect by soil treatment (Table 19, symbol N); format: in vivo, redroot pigweed (Amaranthus retroflexus); settings: amount of applied herbicide 320 g/ha
Summary of the method: as §1

false cleavers [25] = test: Test Example 4: herbicidal effect by soil treatment (Table 19, symbol Q); format: in vivo, false cleavers (Galium spurium); settings: amount of applied herbicide 320 g/ha
Summary of the method: as §1

Chinese sprangletop = test: Test Example 3: herbicidal effect by foliage application, Wagner pot (Table 18, symbol D); format: in vivo, chinese sprangletop (Leptochloa chinensis); settings: 320 g/ha
Summary of the method: as §3

wild oat [26] = test: Test Example 5: herbicidal effect by foliage application, plastic box (Table 20, symbol I); format: in vivo, wild oat (Avena fatua); settings: foliage application, 320 g/ha, three weeks after application
Summary of the method: as §2

green foxtail [27] = test: Test Example 4: herbicidal effect by soil treatment (Table 19, symbol G); format: in vivo, green foxtail (Setaria viridis); settings: amount of applied herbicide 320 g/ha
Summary of the method: as §1

COc1c(C)cc(-c2sc3ccccc3c2-c2c(O)c(C)nn(C)c2=O)cc1C [1-074]
herbicidal effect rating, R: persian speedwell (persian speedwell [1]): 3 (Herbicidal rate of 40% or more and less than 70%) | herbicidal effect rating, I: wild oat (wild oat [2]): 0 (Herbicidal rate of 5% or less (almost no effect)) | herbicidal effect rating, F: southern crabgrass (southern crabgrass [3]): 0 (Herbicidal rate of 5% or less (almost no effect)) | herbicidal effect rating, O: lambsquarters (lambsquarters [4]): 0 (Herbicidal rate of 5% or less (almost no effect)) | herbicidal effect grade, R: persian speedwell (persian speedwell [5]): 5 (Herbicidal rate of 90% or more (almost completely withered)) | herbicidal effect grade, M: velvetleaf (velvetleaf [6]): 0 (Herbicidal rate of 5% or less (almost no effect)) | herbicidal effect grade, N: redroot pigweed (redroot pigweed [7]): 0 (Herbicidal rate of 5% or less (almost no effect)) | herbicidal effect grade, Q: false cleavers (false cleavers [8]): 0 (Herbicidal rate of 5% or less (almost no effect)) | herbicidal effect grade, J: blackgrass (blackgrass [9]): 0 (Herbicidal rate of 5% or less (almost no effect)) | herbicidal effect on H (barnyard grass), rating 0-5 (barnyard grass [10]): 3 (Herbicidal rate of 40% or more and less than 70%) | herbicidal effect grade, K: Italian ryegrass (Italian ryegrass [11]): 4 (Herbicidal rate of 70% or more and less than 90%) | herbicidal effect rating, L: windgrass (windgrass [12]): 0 (Herbicidal rate of 5% or less (almost no effect)) | herbicidal effect rating, P: chickweed (chickweed [13]): 0 (Herbicidal rate of 5% or less (almost no effect)) | herbicidal effect grade, G: green foxtail (green foxtail [14]): 0 (Herbicidal rate of 5% or less (almost no effect)) | herbicidal effect on E (rice flat sedge), rating 0-5 (rice flat sedge): 5 (Herbicidal rate of 90% or more (almost completely withered)) | herbicidal effect rating, K: Italian ryegrass (Italian ryegrass [15]): 0 (Herbicidal rate of 5% or less (almost no effect)) | herbicidal effect grade, P: chickweed (chickweed [16]): 5 (Herbicidal rate of 90% or more (almost completely withered)) | herbicidal effect rating, M: velvetleaf (velvetleaf [17]): 0 (Herbicidal rate of 5% or less (almost no effect)) | herbicidal effect grade, L: windgrass (windgrass [18]): 0 (Herbicidal rate of 5% or less (almost no effect)) | herbicidal effect rating, J: blackgrass (blackgrass [19]): 0 (Herbicidal rate of 5% or less (almost no effect)) | herbicidal effect rating, H: barnyard grass (barnyard grass [20]): 0 (Herbicidal rate of 5% or less (almost no effect)) | herbicidal effect grade, F: southern crabgrass (southern crabgrass [21]): 0 (Herbicidal rate of 5% or less (almost no effect)) | herbicidal effect grade, O: lambsquarters (lambsquarters [22]): 0 (Herbicidal rate of 5% or less (almost no effect)) | herbicidal effect grade, H: barnyard grass (barnyard grass [23]): 0 (Herbicidal rate of 5% or less (almost no effect)) | herbicidal effect rating, N: redroot pigweed (redroot pigweed [24]): 0 (Herbicidal rate of 5% or less (almost no effect)) | herbicidal effect rating, Q: false cleavers (false cleavers [25]): 0 (Herbicidal rate of 5% or less (almost no effect)) | herbicidal effect on D (Chinese sprangletop), rating 0-5 (Chinese sprangletop): 0 (Herbicidal rate of 5% or less (almost no effect)) | herbicidal effect grade, I: wild oat (wild oat [26]): 0 (Herbicidal rate of 5% or less (almost no effect)) | herbicidal effect rating, G: green foxtail (green foxtail [27]): 0 (Herbicidal rate of 5% or less (almost no effect))
